Results reported in ChEMBL document CHEMBL4340515, “Dione-thiophene conjugate inhibits proliferation and metastasis of nasopharyngeal carcinoma cells through calcium binding protein-P down-regulation” (Eur J Med Chem, 2019).
Calls of active or inactive are those of the source. The rule behind the calls is not given here.

Tests used:
C6661 [1] = test: Antiproliferation activity against human C6661 cells assessed as reduction in cell viability incubated for 48 hrs by MTT assay; assay type: functional, cell-based
CNE [2] = test: Antiproliferation activity against human CNE1 cells assessed as reduction in cell viability incubated for 48 hrs by MTT assay; assay type: functional, cell-based
C6661 [3] = test: Induction of apoptosis in human C6661 cells assessed as increase in apoptotic cells population at 2 umol/l incubated for 48 hrs by annexin V-FITC / propidium iodide staining based flow cytometry; assay type: functional
C6661 [4] = test: Antiproliferation activity against human C6661 cells assessed as reduction in cell viability at 1 umol/l incubated for 48 hrs by MTT assay; assay type: functional, cell-based
C6661 [5] = test: Antiproliferation activity against human C6661 cells assessed as reduction in cell viability at 2 to 10 umol/l incubated for 48 hrs by MTT assay relative to control; assay type: functional, cell-based
CNE [6] = test: Antiproliferation activity against human CNE1 cells assessed as reduction in cell viability at 1 umol/l incubated for 48 hrs by MTT assay; assay type: functional, cell-based
CNE [7] = test: Antiproliferation activity against human CNE1 cells assessed as reduction in cell viability at 2 to 10 umol/l incubated for 48 hrs by MTT assay relative to control; assay type: functional, cell-based
C6661 [8] = test: Induction of apoptosis in human C6661 cells assessed as enhanced early apoptotic cells population at 1 to 10 umol/l incubated for 48 hrs by annexin V-FITC / propidium iodide staining based flow cytometry; assay type: functional
C6661 [9] = test: Induction of apoptosis in human C6661 cells assessed as increase in apoptotic cells population at 4 umol/l incubated for 48 hrs by annexin V-FITC / propidium iodide staining based flow cytometry; assay type: functional
C6661 [10] = test: Induction of apoptosis in human C6661 cells assessed as increase in apoptotic cells population at 6 umol/l incubated for 48 hrs by annexin V-FITC / propidium iodide staining based flow cytometry; assay type: functional
C6661 [11] = test: Induction of apoptosis in human C6661 cells assessed as increase in apoptotic cells population at 10 umol/l incubated for 48 hrs by annexin V-FITC / propidium iodide staining based flow cytometry; assay type: functional
C6661 [12] = test: Antimetastatic activity in human C6661 cells assessed as reduction in cell invasion after 48 hrs by hematoxylin staining-based transwell invasion assay; assay type: functional
C6661 [13] = test: Antimetastatic activity in human C6661 cells assessed as cell invasion at 1 umol/l after 48 hrs by hematoxylin staining-based transwell invasion assay relative to control; assay type: functional
C6661 [14] = test: Antimetastatic activity in human C6661 cells assessed as cell invasion at 2 umol/l after 48 hrs by hematoxylin staining-based transwell invasion assay relative to control; assay type: functional
C6661 [15] = test: Antimetastatic activity in human C6661 cells assessed as cell invasion at 4 umol/l after 48 hrs by hematoxylin staining-based transwell invasion assay relative to control; assay type: functional
C6661 [16] = test: Antimetastatic activity in human C6661 cells assessed as cell invasion at 6 umol/l after 48 hrs by hematoxylin staining-based transwell invasion assay relative to control; assay type: functional
C6661 [17] = test: Antimetastatic activity in human C6661 cells assessed as cell invasion at 10 umol/l after 48 hrs by hematoxylin staining-based transwell invasion assay relative to control; assay type: functional
C6661 [18] = test: Down regulation of S100P mRNA expression in human C6661 cells at 2 to 10 umol/l incubated for 48 hrs by RT-qPCR analysis relative to control; assay type: functional, cell-based
C6661 [19] = test: Down regulation of S100P protein expression level in human C6661 cells at 2 to 10 umol/l incubated for 48 hrs by Western-blot analysis relative to control; assay type: functional, cell-based
C6661 [20] = test: Down regulation of MMP-2 protein expression level in human C6661 cells at 4 to 10 umol/l incubated for 48 hrs by Western-blot analysis relative to control; assay type: functional, cell-based
C6661 [21] = test: Down regulation of MMP-9 protein expression level in human C6661 cells at 4 to 10 umol/l incubated for 48 hrs by Western-blot analysis relative to control; assay type: functional, cell-based
C6661 [22] = test: Down regulation of CD44 protein expression level in human C6661 cells at 4 to 10 umol/l incubated for 48 hrs by Western-blot analysis relative to control; assay type: functional, cell-based
C6661 [23] = test: Down regulation of EGFR protein expression level in human C6661 cells at 4 to 10 umol/l incubated for 48 hrs by Western-blot analysis relative to control; assay type: functional, cell-based
C6661 [24] = test: Down regulation of RAGE protein expression level in human C6661 cells at 4 to 10 umol/l incubated for 48 hrs by Western-blot analysis relative to control; assay type: functional, cell-based
[25] = Cytotoxicity against human NP69 cell assessed as reduction in cell viability at 2 to 10 umol/l incubated for 48 hrs by MTT assay
C6661 [26] = test: Down regulation of EGFR protein expression level in human C6661 cells at 1 umol/l incubated for 48 hrs by Western-blot analysis relative to control; assay type: functional, cell-based
C6661 [27] = test: Down regulation of MMP-2 protein expression level in human C6661 cells at 1 umol/l incubated for 48 hrs by Western-blot analysis relative to control; assay type: functional, cell-based
C6661 [28] = test: Down regulation of RAGE protein expression level in human C6661 cells at 1 umol/l incubated for 48 hrs by Western-blot analysis relative to control; assay type: functional, cell-based
C6661 [29] = test: Antiproliferation activity against human C6661 cells assessed as reduction in cell viability at 10 umol/l incubated for 48 hrs by MTT assay relative to control; assay type: functional
CNE [30] = test: Antiproliferation activity against human CNE1 cells assessed as reduction in cell viability at 10 umol/l incubated for 48 hrs by MTT assay; assay type: functional
C6661 [31] = test: Down regulation of MMP-9 protein expression level in human C6661 cells at 1 umol/l incubated for 48 hrs by Western-blot analysis relative to control; assay type: functional, cell-based
C6661 [32] = test: Down regulation of CD44 protein expression level in human C6661 cells at 1 umol/l incubated for 48 hrs by Western-blot analysis relative to control; assay type: functional, cell-based

**Q.** Which results are given for `O=C1CCCCC(=O)C1=CSc1ccccc1F`?
**A.** Activity (C6661 [1]): Active; Activity (CNE [2]): Active

**Q.** Which results are given for `O=C1CCCCC(=O)C1=CSc1ccccc1Br`?
**A.** Activity (C6661 [1]): Active; Activity (CNE [2]): Active

**Q.** Which results are given for `O=C1CCCCC(=O)C1=CSc1ccccc1Cl`?
**A.** Activity (C6661 [1]): Active; Activity (CNE [2]): Active

**Q.** For `N#Cc1ccccc1SC=C1C(=O)CCCCC1=O`, which Activity (C6661 [1]) is on record?
**A.** The Activity was “Active”.

**Q.** What about the Activity (CNE [2]) of the same molecule?
**A.** The Activity was “Active”.

**Q.** What does the source list for `Cc1ncccc1SC=C1C(=O)CCCCC1=O`?
**A.** Activity (C6661 [1]): Active; Activity (CNE [2]): Active

**Q.** Which Activity (C6661 [3]) does the source give for `O=C1CCCCC(=O)C1=CSc1ccccc1C(F)(F)F` here?
**A.** Its Activity is 10.54%.

**Q.** And the Activity (C6661 [4])?
**A.** Its Activity is “inactive”.

**Q.** What about the Activity (C6661 [5]) of the same molecule?
**A.** The Activity was “Active”.

**Q.** And the Activity (CNE [6])?
**A.** The Activity was “inactive”.

**Q.** What about the Activity (CNE [7]) of the same molecule?
**A.** The Activity was “Active”.

**Q.** And the Activity (C6661 [8])?
**A.** Its Activity is 2.76 - 69.43%.

**Q.** What about the Activity (C6661 [9]) of the same molecule?
**A.** Its Activity is 23.45%.

**Q.** What about the Activity (C6661 [10]) of the same molecule?
**A.** Its Activity is 46.24%.

**Q.** What about the Activity (C6661 [11]) of the same molecule?
**A.** Its Activity is 61.78%.

**Q.** And the Activity (C6661 [12])?
**A.** The Activity was “Dose-dependent effect”.

**Q.** What about the Activity (C6661 [13]) of the same molecule?
**A.** The Activity was 99%.

**Q.** And the Activity (C6661 [14])?
**A.** The Activity was 89%.

**Q.** And the Activity (C6661 [15])?
**A.** The Activity was 63%.

**Q.** What about the Activity (C6661 [16]) of the same molecule?
**A.** Its Activity is 22%.

**Q.** What about the Activity (C6661 [17]) of the same molecule?
**A.** Its Activity is 11%.

**Q.** What about the Activity (C6661 [18]) of the same molecule?
**A.** The Activity was “Dose-dependent effect”.

**Q.** What about the Activity (C6661 [19]) of the same molecule?
**A.** Its Activity is “Dose-dependent effect”.

**Q.** What about the Activity (C6661 [20]) of the same molecule?
**A.** Its Activity is “Active”.

**Q.** And the Activity (C6661 [21])?
**A.** Its Activity is “Active”.

**Q.** What about the Activity (C6661 [22]) of the same molecule?
**A.** The Activity was “Active”.

**Q.** And the Activity (C6661 [23])?
**A.** Its Activity is “Active”.

**Q.** And the Activity (C6661 [24])?
**A.** Its Activity is “Active”.

**Q.** And the Activity [25]?
**A.** The Activity was “Non-Toxic”.

**Q.** And the Activity (C6661 [26])?
**A.** The Activity was “inactive”.

**Q.** What about the Activity (C6661 [27]) of the same molecule?
**A.** Its Activity is “inactive”.

**Q.** And the Activity (C6661 [28])?
**A.** Its Activity is “inactive”.

**Q.** And the Activity (C6661 [29])?
**A.** Its Activity is 26%.

**Q.** And the Activity (CNE [30])?
**A.** The Activity was 24%.

**Q.** And the Activity (C6661 [1])?
**A.** Its Activity is “Active”.

**Q.** And the Activity (CNE [2])?
**A.** Its Activity is “Active”.

**Q.** What about the Activity (C6661 [31]) of the same molecule?
**A.** The Activity was “inactive”.

**Q.** What about the Activity (C6661 [32]) of the same molecule?
**A.** The Activity was “inactive”.

**Q.** With `O=C1CCCCC(=O)C1=CSc1ccccc1[N+](=O)[O-]` as the molecule, how does the Activity (C6661 [1]) read?
**A.** Its Activity is “Active”.

**Q.** What about the Activity (CNE [2]) of the same molecule?
**A.** Its Activity is “Active”.
